pKd: −log10 of the molar value. Read-outs that look alike come from different tables or passages of the source. Positions of bridges follow the written chain, without caps; N, C: chain ends. Residues, ends and D or L forms follow the SMILES beside them.
Key:
Assay type in all cases: binding
FGF-R4 ECD = biological target: T1, FGF-R4 ECD (Homo sapiens, UniProt P22455); assay: single concentration BLI of crude peptides
T1 construct: DNA constructs for the extracellular domain (ECD) of human FGF-; HPC4 (C); made in house; host or cells: HEK 293-6E
T1 sequence (P22455 22-369 limits assumed): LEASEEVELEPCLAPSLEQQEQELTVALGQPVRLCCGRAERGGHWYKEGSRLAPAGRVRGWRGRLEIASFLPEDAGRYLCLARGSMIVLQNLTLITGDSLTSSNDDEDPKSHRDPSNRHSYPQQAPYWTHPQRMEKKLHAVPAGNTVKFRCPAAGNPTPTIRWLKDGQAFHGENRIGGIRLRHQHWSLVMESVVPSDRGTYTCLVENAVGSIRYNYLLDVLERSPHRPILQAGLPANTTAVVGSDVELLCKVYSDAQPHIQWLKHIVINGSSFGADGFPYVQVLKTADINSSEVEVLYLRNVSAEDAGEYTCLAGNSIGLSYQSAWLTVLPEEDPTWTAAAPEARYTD
Outline: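 Biotinylated FGF-R ECD on streptavidin biosensors was dipped into ~1 μM crude peptide in PBS pH7.4 with 0.05% Tween-20 and 0.01% BSA for association, then into buffer for dissociation, and followed by BLI. Fitted KD values were adjusted for peptide concentration measured by UPLC-CAD.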

FGF-R1C ECD = biological target: T2, FGF-R1C ECD (Homo sapiens, UniProt P11362); assay: biochemical; set-up: DNA constructs for the extracellular domain (ECD) of human FGF-; HPC4 (C); made in house; host or cells: HEK 293-6E
T2 sequence (P11362 22-376 limits assumed): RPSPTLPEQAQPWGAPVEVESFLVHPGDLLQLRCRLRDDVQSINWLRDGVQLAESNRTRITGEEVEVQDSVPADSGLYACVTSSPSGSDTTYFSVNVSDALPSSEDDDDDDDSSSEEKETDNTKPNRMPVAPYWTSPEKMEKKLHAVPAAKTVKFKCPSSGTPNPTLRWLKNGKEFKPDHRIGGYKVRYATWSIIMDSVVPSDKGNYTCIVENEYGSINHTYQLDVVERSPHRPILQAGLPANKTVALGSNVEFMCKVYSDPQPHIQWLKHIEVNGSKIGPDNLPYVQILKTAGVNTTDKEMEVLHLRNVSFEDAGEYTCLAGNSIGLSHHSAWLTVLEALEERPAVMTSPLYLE
Outline: (§1)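 Streptavidin biosensors carrying biotinylated FGF receptor ECD were immersed in peptide (~1 μM for crude single-point runs, a concentration series for purified peptides) and then in peptide-free buffer. KD was obtained by fitting the BLI association and dissociation curves.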

FGF-R3C ECD = biological target: T3, FGF-R3C ECD (Homo sapiens, UniProt P22607); assay: biochemical; set-up: DNA constructs for the extracellular domain (ECD) of human FGF-; HPC4 (C); made in house; host or cells: HEK 293-6E
T3 sequence (P22607 23-375 limits assumed): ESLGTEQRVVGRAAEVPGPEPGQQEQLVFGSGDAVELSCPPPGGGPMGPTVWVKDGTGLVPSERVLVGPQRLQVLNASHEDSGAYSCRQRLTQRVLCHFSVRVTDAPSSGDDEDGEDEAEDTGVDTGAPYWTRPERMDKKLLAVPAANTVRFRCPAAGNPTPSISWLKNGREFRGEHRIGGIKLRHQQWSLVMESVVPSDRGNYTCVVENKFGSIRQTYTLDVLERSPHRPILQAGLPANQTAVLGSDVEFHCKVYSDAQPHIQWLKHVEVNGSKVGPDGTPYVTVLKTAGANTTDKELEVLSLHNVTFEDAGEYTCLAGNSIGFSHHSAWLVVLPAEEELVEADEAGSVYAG
Outline: as §1

[1] = crude NNK peptides, single concentration BLI (Table S3), read-out: KD (4)
[2] = crude T18 selection 1 (1:1:1) peptides, single concentration BLI (Table S4), read-out: KD (4)

Row | Compound | pKd (FGF-R4 ECD; [1]) | pKd (FGF-R1C ECD) | pKd (FGF-R3C ECD) | pKd (FGF-R4 ECD; [2]) | pKd (FGF-R4 ECD)
1 | CC[C@H](C)[C@@H]1NC(=O)[C@H](CCCCN)NC(=O)[C@H](Cc2ccc(O)cc2)NC(=O)[C@H]([C@@H](C)CC)NC(=O)[C@H]([C@@H](C)O)NC(=O)[C@H]([C@@H](C)CC)NC(=O)[C@H](Cc2c[nH]cn2)NC(=O)[C@@H](NC(=O)[C@H](CCSC)NC(C)=O)CSSC[C@@H](C(=O)NCC(=O)N[C@@H](CO)C(=O)NCC(=O)N[C@@H](CO)C(=O)N[C@@H](CC(=O)O)C(=O)N[C@@H](Cc2ccc(O)cc2)C(=O)N[C@@H](CCCCN)C(=O)N[C@@H](CC(=O)O)C(=O)N[C@@H](CC(=O)O)C(=O)N[C@@H](CC(=O)O)C(=O)N[C@@H](CC(=O)O)C(=O)N[C@@H](CCCCN)C(N)=O)NC(=O)[C@H](Cc2ccc(O)cc2)NC(=O)[C@H](CCCNC(=N)N)NC(=O)[C@H](CC(C)C)NC1=O (Ac-MCHITIYKILRYCGSGSDYKDDDDK-NH2; disulfide 2-13) | 6.91 | < 5.00 | < 5.00 |  | 
2 | CSCC[C@H](NC(C)=O)C(=O)N[C@H]1CSSC[C@@H](C(=O)NCC(=O)N[C@@H](CO)C(=O)NCC(=O)N[C@@H](CO)C(=O)N[C@@H](CC(=O)O)C(=O)N[C@@H](Cc2ccc(O)cc2)C(=O)N[C@@H](CCCCN)C(=O)N[C@@H](CC(=O)O)C(=O)N[C@@H](CC(=O)O)C(=O)N[C@@H](CC(=O)O)C(=O)N[C@@H](CC(=O)O)C(=O)N[C@@H](CCCCN)C(N)=O)NC(=O)[C@H](CO)NC(=O)[C@H](Cc2c[nH]cn2)NC(=O)[C@H](Cc2ccccc2)NC(=O)[C@H](CC(C)C)NC(=O)[C@H](CCCCN)NC(=O)[C@H](Cc2ccc(O)cc2)NC(=O)[C@H](Cc2ccc(O)cc2)NC(=O)[C@H](CC(C)C)NC(=O)[C@H](CC(C)C)NC(=O)[C@H](Cc2c[nH]cn2)NC1=O (Ac-MCHLLYYKLFHSCGSGSDYKDDDDK-NH2; disulfide 2-13) |  | 7.20 | < 5.00 | 6.94 | 
3 | CSCC[C@H](NC(C)=O)C(=O)N[C@H]1CSSC[C@@H](C(=O)NCC(=O)N[C@@H](CO)C(=O)NCC(=O)N[C@@H](CO)C(=O)N[C@@H](CCC(=O)O)C(=O)N[C@@H](CCC(=O)O)C(=O)NCC(=O)N[C@@H](CO)C(=O)NCC(=O)N[C@@H](CO)C(=O)N[C@@H](CC(=O)O)C(=O)N[C@@H](Cc2ccc(O)cc2)C(=O)N[C@@H](CCCCN)C(=O)N[C@@H](CC(=O)O)C(=O)N[C@@H](CC(=O)O)C(=O)N[C@@H](CC(=O)O)C(=O)N[C@@H](CC(=O)O)C(=O)N[C@@H](CCCCN)C(N)=O)NC(=O)[C@H](CO)NC(=O)[C@H](Cc2c[nH]cn2)NC(=O)[C@H](Cc2ccccc2)NC(=O)[C@H](CC(C)C)NC(=O)[C@H](CCCNC(=N)N)NC(=O)[C@H](Cc2c[nH]c3ccccc23)NC(=O)[C@H](Cc2ccc(O)cc2)NC(=O)[C@H](Cc2ccc(O)cc2)NC(=O)[C@H](CC(C)C)NC(=O)[C@H](Cc2c[nH]cn2)NC(=O)[C@H](CCCNC(=N)N)NC(=O)[C@H](Cc2c[nH]cn2)NC1=O (Ac-MCHRHLYYWRLFHSCGSGSEEGSGSDYKDDDDK-NH2; disulfide 2-15) |  | < 5.00 | < 5.00 | 8.30 | 
4 | CC[C@H](C)[C@@H]1NC(=O)[C@H](Cc2ccc(O)cc2)NC(=O)[C@H](CCCNC(=N)N)NC(=O)[C@H](Cc2c[nH]cn2)NC(=O)[C@@H](NC(=O)[C@H](CCSC)NC(C)=O)CSSC[C@@H](C(=O)NCC(=O)N[C@@H](CO)C(=O)NCC(=O)N[C@@H](CO)C(=O)N[C@@H](CC(=O)O)C(=O)N[C@@H](Cc2ccc(O)cc2)C(=O)N[C@@H](CCCCN)C(=O)N[C@@H](CC(=O)O)C(=O)N[C@@H](CC(=O)O)C(=O)N[C@@H](CC(=O)O)C(=O)N[C@@H](CC(=O)O)C(=O)N[C@@H](CCCCN)C(N)=O)NC(=O)[C@H](Cc2c[nH]cn2)NC(=O)[C@H](Cc2c[nH]c3ccccc23)NC(=O)[C@H](Cc2ccc(O)cc2)NC(=O)[C@H](CC(=O)O)NC(=O)[C@H](CC(C)C)NC(=O)[C@H](Cc2ccc(O)cc2)NC1=O (Ac-MCHRYIYLDYWHCGSGSDYKDDDDK-NH2; disulfide 2-13) |  | < 5.00 | < 5.00 |  | 7.36
5 | CC[C@H](C)[C@@H]1NC(=O)[C@H](Cc2ccc(O)cc2)NC(=O)[C@H](Cc2c[nH]cn2)NC(=O)[C@@H](NC(=O)[C@H](CCSC)NC(C)=O)CSSC[C@@H](C(=O)NCC(=O)N[C@@H](CO)C(=O)NCC(=O)N[C@@H](CO)C(=O)N[C@@H](CC(=O)O)C(=O)N[C@@H](Cc2ccc(O)cc2)C(=O)N[C@@H](CCCCN)C(=O)N[C@@H](CC(=O)O)C(=O)N[C@@H](CC(=O)O)C(=O)N[C@@H](CC(=O)O)C(=O)N[C@@H](CC(=O)O)C(=O)N[C@@H](CCCCN)C(N)=O)NC(=O)[C@H](CC(C)C)NC(=O)[C@H](Cc2c[nH]c3ccccc23)NC(=O)[C@H](CC(=O)O)NC(=O)[C@H](CO)NC1=O (Ac-MCHYISDWLCGSGSDYKDDDDK-NH2; disulfide 2-10) | < 5.00 | < 5.00 | < 5.00 |  | 
6 | CC[C@H](C)[C@@H]1NC(=O)[C@@H](NC(=O)[C@H](CCSC)NC(C)=O)CSSC[C@@H](C(=O)NCC(=O)N[C@@H](CO)C(=O)NCC(=O)N[C@@H](CO)C(=O)N[C@@H](CC(=O)O)C(=O)N[C@@H](Cc2ccc(O)cc2)C(=O)N[C@@H](CCCCN)C(=O)N[C@@H](CC(=O)O)C(=O)N[C@@H](CC(=O)O)C(=O)N[C@@H](CC(=O)O)C(=O)N[C@@H](CC(=O)O)C(=O)N[C@@H](CCCCN)C(N)=O)NC(=O)[C@H](C(C)C)NC(=O)[C@H](C(C)C)NC(=O)[C@H](Cc2c[nH]c3ccccc23)NC(=O)[C@H](Cc2ccccc2)NC(=O)[C@H](CC(=O)O)NC(=O)[C@H](CO)NC(=O)[C@H](CC(C)C)NC(=O)[C@H](CCCNC(=N)N)NC(=O)[C@H](Cc2c[nH]cn2)NC1=O (Ac-MCIHRLSDFWVVCGSGSDYKDDDDK-NH2; disulfide 2-13) | 7.39 | 7.72 | 7.31 |  | 
7 | CC[C@H](C)[C@@H]1NC(=O)[C@@H](NC(=O)[C@H](CCSC)NC(C)=O)CSSC[C@@H](C(=O)NCC(=O)N[C@@H](CO)C(=O)NCC(=O)N[C@@H](CO)C(=O)N[C@@H](CC(=O)O)C(=O)N[C@@H](Cc2ccc(O)cc2)C(=O)N[C@@H](CCCCN)C(=O)N[C@@H](CC(=O)O)C(=O)N[C@@H](CC(=O)O)C(=O)N[C@@H](CC(=O)O)C(=O)N[C@@H](CC(=O)O)C(=O)N[C@@H](CCCCN)C(N)=O)NC(=O)[C@H](CC(C)C)NC(=O)[C@H](CC(C)C)NC(=O)[C@H](Cc2ccc(O)cc2)NC(=O)[C@H](Cc2ccc(O)cc2)NC(=O)[C@H](Cc2ccccc2)NC(=O)[C@H](CC(C)C)NC(=O)[C@H](Cc2c[nH]cn2)NC(=O)[C@H](CC(C)C)NC(=O)[C@H](CC(=O)O)NC(=O)[C@H](CCCCN)NC1=O (Ac-MCIKDLHLFYYLLCGSGSDYKDDDDK-NH2; disulfide 2-14) |  | 7.52 | < 5.00 | 7.85 | 
8 | CC[C@H](C)[C@@H]1NC(=O)[C@@H](NC(=O)[C@H](CCSC)NC(C)=O)CSSC[C@@H](C(=O)NCC(=O)N[C@@H](CO)C(=O)NCC(=O)N[C@@H](CO)C(=O)N[C@@H](CC(=O)O)C(=O)N[C@@H](Cc2ccc(O)cc2)C(=O)N[C@@H](CCCCN)C(=O)N[C@@H](CC(=O)O)C(=O)N[C@@H](CC(=O)O)C(=O)N[C@@H](CC(=O)O)C(=O)N[C@@H](CC(=O)O)C(=O)N[C@@H](CCCCN)C(N)=O)NC(=O)[C@H](CO)NC(=O)[C@H](CO)NC(=O)[C@H](CCCNC(=N)N)NC(=O)[C@H](Cc2c[nH]c3ccccc23)NC(=O)[C@H](CC(C)C)NC(=O)[C@H](CC(C)C)NC(=O)[C@H](Cc2ccccc2)NC(=O)[C@H]([C@@H](C)O)NC(=O)[C@H](CCCCN)NC1=O (Ac-MCIKTFLLWRSSCGSGSDYKDDDDK-NH2; disulfide 2-13) | < 5.00 | < 5.00 | < 5.00 |  | 

Reference: article PMC10763615, “Identification and engineering of potent cyclic peptides with selective or promiscuous binding through biochemical profiling and bioinformatic data analysis” (RSC Chemical Biology, 2023)
